# From US11622964B2, “Method for destroying cellular mechanical homeostasis and promoting regeneration and repair of tissues and organs, and use thereof” (INSTITUTE OF ZOOLOGY, CHINESE ACADEMY OF SCIENCES, priority 2018, dated 2023)
# Assays:
# [1] = tested on: mouse embryonic fibroblasts (MEFs); assay: TGF-β1-induced transformation of mouse embryonic fibroblasts into myofibroblasts; type: cell-based; details: S-Bleb-OB 20 μM; for stretched state / fibrous morphology of MEFs: compared with DMSO; for TGF-β1-induced myofibroblast activation: scheme as Example 9-1
# Text: In this example, cell models for in vitro fibrosis are respectively built to activate mouse hepatic stellate Cells (mHSCs, FIG. 13(B)), mouse embryonic fibroblasts (MEFs FIG. 13(C)), mouse adult liver, lung, and heart-derived primary mesenchymal cells (priMCs, FIG. 13(D)), and human hepatic stellate cells (hLX-2, FIG. 13(E)) into myofibroblasts through the induction of TGF-β1. The specific experimental procedure is as shown in FIG. 9A: a medium containing 10% serum is used for the initial cell culture; after 24 hours the medium is replaced with low serum medium (or pre-starvation treatment for 16 hours) while adding 3 ng/ml TGF-β1 with DMSO or Bleb (20 μM); after 7 days the expression of myofibroblast activation marker protein (Acta2), collagen (Col1a1, Col1a2, Col3a1, and Col1a2), and matrix metalloproteinases and inhibitors (collagenases: MmP8, and MmP13; gelatinases: MmP2, and MmP9; a metalloproteinase inhibitor: Timp1/2/3) are identified.
# adult hepatocytes = assay: In vitro amplification of adult hepatocytes; type: cell-based, human; details: for number of cells: after 6 days of culture
# Procedure: Resuscitation and Culture of Adult Hepatocytes: adult hepatocytes ([…] […] human, Bioreclamation IVT) are taken out from the liquid nitrogen tank, quickly placing in a 37° C. water bath, after melting the cells are added to 5 ml of 37° C. pre-warmed hepatocyte inoculation medium (In VitroGRO CP Medium), then inoculating at 9×10^4/well in 24-well plate after counting, 2-4 hours after hepatocyte adherence, the hepatocyte inoculation medium is sucked and discarded, then respectively adding control medium for hepatocyte culture, 10 μm small molecule medium, and 20 μm small molecule medium; changing the medium every 2 days. The number of cells is estimated from the photograph on day 2. After 4 days, the 20 μm small molecule medium group is changed to culture the cells in 10 μm small molecule medium. After co-culturing for 6 days the cells are counted. A portion of the cells are taken for RNA extraction so as to detect the expression of human hepatocyte-specific genes. Passage of Adult Hepatocytes: 4.7×10^4 hepatocytes cultured in the above control group, and 8×10^4 hepatocytes cultured in 10 μm small molecule medium are respectively re-inoculated into 24-well plate coated with rat tail collagen, changing the medium every two days and culturing for 6 days, photographs are taken to record the growth of the cells. Induction of CYP1A2 in Adult Hepatocytes Amplified by Small Molecule Medium: 3×10^5 hepatocytes are inoculated in 24-well plate coated with rat tail collagen, after culturing in 10 μm small molecule medium for 24 hours, the medium is replaced with 10 μm small molecule medium containing 50 μm omeprazole, and in the control group the cells are cultured in 10 μm small molecule medium containing DMSO; 48 hours later, the cells are collected to detect the expression of the CYP1A2 gene.
compound,measurement,setting,value
"Cc1ccc2c(c1)C(=O)[C@@]1(O)CCN(c3ccccc3)C1=N2 [R-Bleb, (R)-(+)-blebbistatin]",stretched state / fibrous morphology of MEFs,[1],does not affect the fibrous morphology
same,TGF-β1-induced myofibroblast activation,[1],no inhibitory effect
"Cc1ccc2c(c1)C(=O)[C@]1(OC(=O)c3ccccc3)CCN(c3ccccc3)C1=N2 [S-Bleb-OB, (−)-blebbistatin o-benzoate]",stretched state / fibrous morphology of MEFs,[1],may destroy the stretched state
same,TGF-β1-induced myofibroblast activation,[1],capable of inhibiting
COc1ccc2[nH]c([S+]([O-])Cc3ncc(C)c(OC)c3C)nc2c1 (stereo not drawn) [omeprazole],expression of CYP1A2 gene after induction,"adult hepatocytes; 50 μm omeprazole, 48 hours, subcultured adult hepatocytes in 10 μm small molecule medium",increase
(−)-blebbistatin,amplification effect on adult hepatocytes (cell number day 6 / day 2),adult hepatocytes,significant amplification effect
same,"expression of human hepatocyte specific genes ALBUMIN, AFP, CYP1A2, CYP3A4",adult hepatocytes,still express
same,subculture of human hepatocytes,adult hepatocytes,can subculture human hepatocytes
same,number of cells,adult hepatocytes; 10 μm group,6.47×10^4 (SD=1.24)
same,number of cells,"adult hepatocytes; # group (20 μm for 4 days, then 10 μm for 2 days)",9.47×10^4 (SD=0.98)
same,expression of proliferating cell nuclear antigen (PCNA) gene,adult hepatocytes; vs control group,significantly higher
(−)-blebbistatin o-benzoate [S-Bleb-OB],TGF-β1-induced myofibroblast activation,[1],have an inhibitory effect
